Results published in patent US4921850A, “3-propenylcephem derivative” (Eisai Co., Ltd., priority 1986, dated 1990).
Converted amounts (≈) assume the structure as drawn. Like-named read-outs stand apart in the source and are kept apart here.

Columns and labels:
Assay in all cases: Anti-bacterial activity (MIC), agar dilution
Type in all cases: cell-based
[1] = system: Morganella morganii EP-14; settings: about 10^6 CFU/ml, 37° C.
Method: (§1) MIC (μg/ml) were determined by an agar dilution method [Chemotherapy (Japan), 29, 76-79, 1981]. Overnight cultures of the bacterial strains in Mueller-Hinton broth were diluted to final concentration of about 10^6 CFU/ml, and 5 μl of each bacterial suspension was spotted onto Mueller-Hinton agar plates that contained twofold serial dilutions of antibiotics. MICs were measured after incubation for 18 hours at 37° C.

Kleb. pneumoniae EK-6 = settings: Kleb. pneumoniae EK-6, agar dilution, about 10^6 CFU/ml, 18 hours, 37° C.
Method: as §1

Staph. aureus 209-P = settings: Staph. aureus 209-P, agar dilution, about 10^6 CFU/ml, 18 hours, 37° C.
Method: as §1

Pseud. aeruginosa EP-01 = settings: Pseud. aeruginosa EP-01, agar dilution, about 10^6 CFU/ml, 18 hours, 37° C.
Method: as §1

Escher. coli NIHJ = system: Escher. coli NIHJ
Method: as §1

Ser. marcescens ES-75 = system: Ser. marcescens ES-75
Method: as §1

[2] = Morganella morganii, EP14, 18 h, read-out: MIC
[3] = Klebsiella pneumoniae, EK6, 18 h, read-out: MIC
[4] = Staphylococcus aureus, 209P, 18 h, read-out: MIC
[5] = Pseudomonas aeruginosa, EP01, 18 h, read-out: MIC
[6] = Escherichia coli, 18 h, Escher. coli NIHJ, agar dilution, about 10^6 CFU/ml, 18 hours, 37° C., read-out: MIC
[7] = Serratia marcescens, ES75, 18 h, Ser. marcescens ES-75, agar dilution, about 10^6 CFU/ml, 18 hours, 37° C., read-out: MIC
[8] = Escher. coli NIHJ, agar dilution, about 10^6 CFU/ml, 18 hours, 37° C.
[9] = Ser. marcescens ES-75, agar dilution, about 10^6 CFU/ml, 18 hours, 37° C.

| SMILES | MIC [1, 2] [µg/mL] | MIC (Kleb. pneumoniae EK-6; [3]) [µg/mL] | MIC (Staph. aureus 209-P; [4]) [µg/mL] | MIC (Pseud. aeruginosa EP-01; [5]) [µg/mL] | MIC (Escher. coli NIHJ; [6]) [µg/mL] | MIC (Ser. marcescens ES-75; [7]) [µg/mL] | MIC ([1]; 18 hours) [µg/mL] | MIC (Kleb. pneumoniae EK-6) [µg/mL] | MIC (Staph. aureus 209-P) [µg/mL] | MIC (Pseud. aeruginosa EP-01) [µg/mL] | MIC (Escher. coli NIHJ; [8]) [µg/mL] | MIC (Ser. marcescens ES-75; [9]) [µg/mL] | MIC (Escher. coli NIHJ; Escherichia coli, 18 h) [µg/mL] | MIC (Ser. marcescens ES-75; Serratia marcescens, ES75, 18 h) [µg/mL] |
| --- | --- | --- | --- | --- | --- | --- | --- | --- | --- | --- | --- | --- | --- | --- |
| C[N+]1(C/C=C/C2=C(C(=O)[O-])N3C(=O)[C@@H](NC(=O)/C(=N\OCF)c4nsc(N)n4)[C@H]3SC2)C[C@H](O)C[C@H]1CO (stereo partly drawn) [Example 8, 7β-[2-(5-Amino-1,2,4-thiadiazol-3-yl)-(Z)-2-fluoromethoxyiminoacetamido]-3-[(E)-3-(4R-hydroxy-2S-hydroxymethyl-1-methyl-1-pyrrolidinio)-1-propen-1-yl]-3-cephem-4-carboxylate] | ≤ 0.025 | ≤ 0.025 | 0.2 (≈ 0.35 µM) | 0.8 (≈ 1.4 µM) | ≤ 0.025 | ≤ 0.025 | – | – | – | – | – | – | – | – |
| NC(=O)C[N+]1(C/C=C/C2=C(C(=O)[O-])N3C(=O)[C@@H](NC(=O)/C(=N\OCF)c4nsc(N)n4)[C@H]3SC2)CCC(O)C1 (stereo partly drawn) [Example 9-2, 7β-[2-(5-Amino-1,2,4-thiadiazol-3-yl)-(Z)-2-fluoromethoxyiminoacetamido]-3-[(E)-3-(1-carbamoylmethyl-3-hydroxy-1-pyrrolidinio)-1-propen-1-yl]-3-cephem-4-carboxylate] | – | – | – | – | – | – | ≤ 0.025 | ≤ 0.025 | 0.4 (≈ 0.684 µM) | 0.8 (≈ 1.37 µM) | ≤ 0.025 | ≤ 0.025 | – | – |
| NC(=O)C[N+]1(C/C=C/C2=C(C(=O)[O-])N3C(=O)[C@@H](NC(=O)/C(=N\OCF)c4nsc(N)n4)[C@H]3SC2)CCC(O)C1 (stereo partly drawn) [Example 9-3, 7β-[2-(5-Amino-1,2,4-thiadiazol-3-yl)-(Z)-2-fluoromethoxyiminoacetamido]-3-[(E)-3-(1-carbamoylmethyl-3-hydroxy-1-pyrrolidinio)-1-propen-1-yl]-3-cephem-4-carboxylate] | – | – | – | – | – | – | ≤ 0.025 | ≤ 0.025 | 0.4 (≈ 0.684 µM) | 0.8 (≈ 1.37 µM) | ≤ 0.025 | ≤ 0.025 | – | – |
| N#CC[N+]1(C/C=C/C2=C(C(=O)[O-])N3C(=O)[C@@H](NC(=O)/C(=N\OCF)c4nsc(N)n4)[C@H]3SC2)CCCC1 [Example 14] | ≤ 0.025 | ≤ 0.025 | 0.2 (≈ 0.363 µM) | 0.8 (≈ 1.45 µM) | – | 0.05 (≈ 0.0908 µM) | – | – | – | – | – | – | ≤ 0.025 | – |
| Nc1nc(/C(=N/OCF)C(=O)N[C@@H]2C(=O)N3C(C(=O)[O-])=C(/C=C/C[N+]4(CCO)CCC(O)C4)CS[C@H]23)ns1 (stereo partly drawn) [Example 15-2] | – | – | – | – | – | – | ≤ 0.025 | ≤ 0.025 | 0.4 (≈ 0.7 µM) | 1.56 (≈ 2.73 µM) | ≤ 0.025 | ≤ 0.025 | – | – |
| NC(=O)C[N+]1(C/C=C/C2=C(C(=O)[O-])N3C(=O)[C@@H](NC(=O)/C(=N\OCF)c4nsc(N)n4)[C@H]3SC2)CCCC1 [Example 19] | ≤ 0.025 | ≤ 0.025 | 0.2 (≈ 0.352 µM) | 0.8 (≈ 1.41 µM) | ≤ 0.025 | – | – | – | – | – | – | – | – | 0.5 (≈ 0.879 µM) |
| Nc1nc(/C(=N/OCF)C(=O)N[C@@H]2C(=O)N3C(C(=O)[O-])=C(/C=C/C[N+]4(CCO)CCN(S(N)(=O)=O)CC4)CS[C@H]23)ns1 [Example 29] | ≤ 0.025 | ≤ 0.025 | 0.4 (≈ 0.616 µM) | 0.8 (≈ 1.23 µM) | ≤ 0.025 | 0.1 (≈ 0.154 µM) | – | – | – | – | – | – | – | – |
| NC(=O)C[N+]1(C/C=C/C2=C(C(=O)[O-])N3C(=O)[C@@H](NC(=O)/C(=N\OCF)c4nsc(N)n4)[C@H]3SC2)CCN(C(N)=O)CC1 [Example 31] | ≤ 0.025 | ≤ 0.025 | 0.4 (≈ 0.638 µM) | 1.56 (≈ 2.49 µM) | 0.05 (≈ 0.0798 µM) | 0.1 (≈ 0.16 µM) | – | – | – | – | – | – | – | – |
| NC(=O)C[N+]1(C/C=C/C2=C(C(=O)[O-])N3C(=O)[C@@H](NC(=O)/C(=N\OCF)c4nsc(N)n4)[C@H]3SC2)CCOCC1 [Example 35] | 0.05 (≈ 0.0855 µM) | ≤ 0.025 | 0.4 (≈ 0.684 µM) | 0.8 (≈ 1.37 µM) | 0.05 (≈ 0.0855 µM) | 0.1 (≈ 0.171 µM) | – | – | – | – | – | – | – | – |

The next lines start with results.

| MIC [1, 2] [µg/mL] | MIC (Kleb. pneumoniae EK-6; [3]) [µg/mL] | MIC (Staph. aureus 209-P; [4]) [µg/mL] | MIC (Pseud. aeruginosa EP-01; [5]) [µg/mL] | MIC (Escher. coli NIHJ; [6]) [µg/mL] | MIC (Ser. marcescens ES-75; [7]) [µg/mL] | SMILES | MIC ([1]; 18 hours) [µg/mL] | MIC (Kleb. pneumoniae EK-6) [µg/mL] | MIC (Staph. aureus 209-P) [µg/mL] | MIC (Pseud. aeruginosa EP-01) [µg/mL] | MIC (Escher. coli NIHJ; [8]) [µg/mL] | MIC (Ser. marcescens ES-75; [9]) [µg/mL] | MIC (Escher. coli NIHJ; Escherichia coli, 18 h) [µg/mL] | MIC (Ser. marcescens ES-75; Serratia marcescens, ES75, 18 h) [µg/mL] |
| --- | --- | --- | --- | --- | --- | --- | --- | --- | --- | --- | --- | --- | --- | --- |
| ≤ 0.025 | ≤ 0.025 | 0.4 (≈ 0.7 µM) | 1.56 (≈ 2.73 µM) | 0.05 (≈ 0.0875 µM) | ≤ 0.025 | Nc1nc(/C(=N/OCF)C(=O)N[C@@H]2C(=O)N3C(C(=O)[O-])=C(/C=C/C[N+]4(CCO)CCC(O)C4)CS[C@H]23)ns1 (stereo partly drawn) [Example 15-1] | – | – | – | – | – | – | – | – |
| ≤ 0.025 | ≤ 0.025 | 0.2 (≈ 0.342 µM) | 0.8 (≈ 1.37 µM) | ≤ 0.025 | ≤ 0.025 | Nc1nc(/C(=N/OCF)C(=O)N[C@@H]2C(=O)N3C(C(=O)[O-])=C(/C=C/C[N+]4(CCO)CCC[C@@H]4CO)CS[C@H]23)ns1 (stereo partly drawn) [Example 16] | – | – | – | – | – | – | – | – |
| ≤ 0.025 | ≤ 0.025 | 0.4 (≈ 0.668 µM) | 0.8 (≈ 1.34 µM) | ≤ 0.025 | ≤ 0.025 | NC(=O)C[N+]1(C/C=C/C2=C(C(=O)[O-])N3C(=O)[C@@H](NC(=O)/C(=N\OCF)c4nsc(N)n4)[C@H]3SC2)CCC[C@@H]1CO (stereo partly drawn) [Example 17] | – | – | – | – | – | – | – | – |
| ≤ 0.025 | ≤ 0.025 | 0.2 (≈ 0.36 µM) | 1.56 (≈ 2.81 µM) | ≤ 0.025 | 0.05 (≈ 0.09 µM) | Nc1nc(/C(=N/OCF)C(=O)N[C@@H]2C(=O)N3C(C(=O)[O-])=C(/C=C/C[N+]4(CCO)CCCC4)CS[C@H]23)ns1 [Example 20] | – | – | – | – | – | – | – | – |
| 0.05 (≈ 0.0902 µM) | 0.05 (≈ 0.0902 µM) | 0.2 (≈ 0.361 µM) | 3.13 (≈ 5.64 µM) | 0.05 (≈ 0.0902 µM) | 0.2 (≈ 0.361 µM) | NCC[N+]1(C/C=C/C2=C(C(=O)[O-])N3C(=O)[C@@H](NC(=O)/C(=N\OCF)c4nsc(N)n4)[C@H]3SC2)CCCC1 [Example 22] | – | – | – | – | – | – | – | – |
| ≤ 0.025 | ≤ 0.025 | 0.2 (≈ 0.352 µM) | 1.56 (≈ 2.74 µM) | ≤ 0.025 | ≤ 0.025 | C[N+]1(C/C=C/C2=C(C(=O)[O-])N3C(=O)[C@@H](NC(=O)/C(=N\OCF)c4nsc(N)n4)[C@H]3SC2)CCN(C=O)CC1 [Example 24] | – | – | – | – | – | – | – | – |
| 0.1 (≈ 0.172 µM) | 0.1 (≈ 0.172 µM) | 0.2 (≈ 0.344 µM) | 0.8 (≈ 1.38 µM) | 0.1 (≈ 0.172 µM) | 0.4 (≈ 0.688 µM) | CC(=N)N1CC[N+](C)(C/C=C/C2=C(C(=O)[O-])N3C(=O)[C@@H](NC(=O)/C(=N\OCF)c4nsc(N)n4)[C@H]3SC2)CC1 [Example 26] | – | – | – | – | – | – | – | – |
| 0.05 (≈ 0.0813 µM) | ≤ 0.025 | 0.4 (≈ 0.651 µM) | 1.56 (≈ 2.54 µM) | 0.05 (≈ 0.0813 µM) | 0.1 (≈ 0.163 µM) | Nc1nc(/C(=N/OCF)C(=O)N[C@@H]2C(=O)N3C(C(=O)[O-])=C(/C=C/C[N+]4(CCO)CCN(CCO)CC4)CS[C@H]23)ns1 [Example 27] | – | – | – | – | – | – | – | – |
| 0.05 (≈ 0.0815 µM) | 0.05 (≈ 0.0815 µM) | 0.4 (≈ 0.652 µM) | 1.56 (≈ 2.54 µM) | 0.05 (≈ 0.0815 µM) | 0.2 (≈ 0.326 µM) | NC(=O)N1CC[N+](C/C=C/C2=C(C(=O)[O-])N3C(=O)[C@@H](NC(=O)/C(=N\OCF)c4nsc(N)n4)[C@H]3SC2)(CCO)CC1 [Example 28] | – | – | – | – | – | – | – | – |
| 0.05 (≈ 0.0777 µM) | 0.05 (≈ 0.0777 µM) | 0.4 (≈ 0.621 µM) | 1.56 (≈ 2.42 µM) | 0.05 (≈ 0.0777 µM) | 0.2 (≈ 0.311 µM) | NC(=O)N1CC[N+](C/C=C/C2=C(C(=O)[O-])N3C(=O)[C@@H](NC(=O)/C(=N\OCF)c4nsc(N)n4)[C@H]3SC2)(CC(O)CO)CC1 (stereo partly drawn) [Example 30] | – | – | – | – | – | – | – | – |
| ≤ 0.025 | ≤ 0.025 | 0.2 (≈ 0.305 µM) | 1.56 (≈ 2.38 µM) | ≤ 0.025 | 0.05 (≈ 0.0763 µM) | NC(=O)NCC[N+]1(C/C=C/C2=C(C(=O)[O-])N3C(=O)[C@@H](NC(=O)/C(=N\OCF)c4nsc(N)n4)[C@H]3SC2)CCN(C(N)=O)CC1 [Example 32] | – | – | – | – | – | – | – | – |
